Data reported in patent publication US20250304620A1, “ANTIMICROBIAL PEPTIDE AND APPLICATION THEREOF” (priority 2023, published 2025).
≈ marks a conversion by molar mass, not a printed value. Marks after values point to notes of the source that are not given here. Non-standard residues stand in square brackets, D forms with d. Residues, ends and D or L forms follow the SMILES beside them. dPhe(4-F) = N[C@H](Cc1ccc(F)cc1)C(=O)O; d2Nal = N[C@H](Cc1ccc2ccccc2c1)C(=O)O

Legend:
[1] = test system: Staphylococcus aureus (NRS 384); assay: microbe, parasite or virus in culture; format: cell-based; details: NRS 384
Summary of the method: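 CLSI broth microdilution with serial twofold dilutions gave MICs against S. aureus NRS 384, with 5 parallel replicates. Levofloxacin and the AMP Cbf-K16 served as positive controls.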

[2] = test system: Candida tropicalis ATCC 750; format: cell-based
Summary of the method: (§1)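 Five parallel repeats; twofold dilution series of each peptide per US CLSI susceptibility protocol; endpoint = MIC.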

Enterococcus ATCC 29212 = format: cell-based
Summary of the method: as §1

[3] = test system: Escherichia coli ATCC 25922; format: cell-based
Summary of the method: as §1

[4] = test system: Trichophyton ATCC MYA-4438; format: cell-based
Summary of the method: as §1

[5] = test system: Staphylococcus aureus (NRS 384); details: NRS 384, 3 h
Procedure: Trypsin (250 U/mg, pH=8.0) and AMPs (LV-1 to LV-30) were mixed in a ratio of 1:10 (w/w) and added to a reaction buffer (0.2 M sodium phosphate, 1 mM CaCl2), pH 7.5), and then incubated at 37° C. for 3 h.

[6] = test system: Escherichia coli ATCC 25922; assay: Oral formulations on mice with systemic bacterial infection; format: in vivo, ICR mice; details: three times a day for 7 days; for Number of mice that died on each day after infection: day 4 / Number of mice that died on each day after infection: day 5 / Number of mice that died on each day after infection: day 6 / Number of mice that died on each day after infection: day 7 / Number of mice that died on each day after infection: day 8 / Average survival times (Days): n = 10; for Average survival times (Days): observed for 14 d; for survival time of mice infected with Escherichia coli: gavage, observed 14 d
Procedure: Both female and male ICR mice were used in the test, half of the female and male mice were taken and randomly assigned into groups, with 10 mice in each group, and kept in separate cages. The mice were divided into a blank control group, a negative control group, a positive control Levofloxacin group, and AMPs LV-1 to LV-30 groups. An Escherichia coli ATCC 25922 bacterial suspension was prepared, a concentration of the suspension was adjusted 1×10^7 CFU/mL for subsequent use. Except for the blank control group, all other mice were injected with the Escherichia coli suspension (0.2 mL, 1×10^7 CFU/mL), into abdominal cavity of the mice, to establish a model. After the model was successfully established, the mice were given drug immediately according to their body weights. Except for the blank control group and the negative control group, the mice in all other groups were gavaged with different compounds, three times a day for 7 consecutive days. The mice were then observed for 14 d. The death of mice in each group was observed, and survival time of the mice was recorded. Results of the effect of the oral formulations of AMPs LV-1 to LV-30 on the survival time of mice infected with Escherichia coli are shown in Table 11.

| SMILES | MIC against Staphylococcus aureus (NRS 384) [1] | MIC Candida tropicalis ATCC 750 [2] | MIC Enterococcus ATCC 29212 (Enterococcus ATCC 29212) | MIC Escherichia coli ATCC 25922 [3] | MIC Trichophyton ATCC MYA-4438 [4] | Trypsin MIC [5] | Number of mice that died on each day after infection: day 4 ([6]; 0.2 mg/kg gavage) | Number of mice that died on each day after infection: day 5 ([6]; 0.2 mg/kg gavage) | Number of mice that died on each day after infection: day 6 ([6]; 0.2 mg/kg gavage) | Number of mice that died on each day after infection: day 7 ([6]; 0.2 mg/kg gavage) | Number of mice that died on each day after infection: day 8 ([6]; 0.2 mg/kg gavage) | Average survival times (Days) ([6]; 0.2 mg/kg gavage) | Number of mice that died on each day after infection: day 4 ([6]; 1 mg/kg gavage) | Number of mice that died on each day after infection: day 5 ([6]; 1 mg/kg gavage) | Number of mice that died on each day after infection: day 6 ([6]; 1 mg/kg gavage) | Number of mice that died on each day after infection: day 7 ([6]; 1 mg/kg gavage) | Number of mice that died on each day after infection: day 8 ([6]; 1 mg/kg gavage) | Average survival times (Days) ([6]; 1 mg/kg gavage) | Number of mice that died on each day after infection: day 4 ([6]; 5 mg/kg gavage) | Number of mice that died on each day after infection: day 5 ([6]; 5 mg/kg gavage) | also measured |
| --- | --- | --- | --- | --- | --- | --- | --- | --- | --- | --- | --- | --- | --- | --- | --- | --- | --- | --- | --- | --- | --- |
| CC(=O)N[C@H](CCCNC(=N)N)C(=O)N[C@H](CCCNC(=N)N)C(=O)N[C@H](CC(C)C)C(=O)N[C@H](CC(C)C)C(=O)N[C@H](Cc1ccc2ccccc2c1)C(=O)N[C@H](CCCNC(=N)N)C(=O)N[C@H](CC(C)C)C(=O)N[C@H](CCCNC(=N)N)C(=O)N[C@H](Cc1ccc2ccccc2c1)C(=O)N[C@H](CCCNC(=N)N)C(=O)N[C@H](CCCNC(=N)N)C(N)=O [LV-1] (Ac-[dR][dR][dL][dL][d2Nal][dR][dL][dR][d2Nal][dR][dR]-NH2) | 1 µg/mL (≈ 0.578 µM) | 4 µg/mL (≈ 2.31 µM) | 2 µg/mL (≈ 1.16 µM) | 1 µg/mL (≈ 0.578 µM) | 8 µg/mL (≈ 4.62 µM) | 1 µg/mL | 0 Mouse | 3 Mouse | 1 Mouse | 0 Mouse | 1 Mouse | 9.9** Days | 0 Mouse | 0 Mouse | 1 Mouse | 1 Mouse | 1 Mouse | 11.9**** Days | 0 Mouse | 0 Mouse | Number of mice that died on each day after infection: day 6 ([6]; 5 mg/kg gavage): 2 Mouse; Number of mice that died on each day after infection: day 7 ([6]; 5 mg/kg gavage): 1 Mouse; Number of mice that died on each day after infection: day 8 ([6]; 5 mg/kg gavage): 0 Mouse; Average survival times (Days) ([6]; 5 mg/kg gavage): 11.7**** Days; survival time of mice infected with Escherichia coli [6]: superior to those of the Levofloxacin group |
| CC(=O)N[C@H](CCCNC(=N)N)C(=O)N[C@H](CCCCN)C(=O)N[C@H](CC(C)C)C(=O)N[C@H](CC(C)C)C(=O)N[C@H](Cc1ccccc1)C(=O)N[C@H](CCCNC(=N)N)C(=O)N[C@H](CC(C)C)C(=O)N[C@H](CCCCN)C(=O)N[C@H](Cc1ccccc1)C(=O)N[C@H](CCCNC(=N)N)C(=O)N[C@H](CCCCN)C(N)=O [LV-2] (Ac-[dR][dK][dL][dL][dF][dR][dL][dK][dF][dR][dK]-NH2) | 1 µg/mL (≈ 0.647 µM) | 16 µg/mL (≈ 10.3 µM) | 4 µg/mL (≈ 2.59 µM) | 1 µg/mL (≈ 0.647 µM) | 8 µg/mL (≈ 5.17 µM) | 1 µg/mL | 1 Mouse | 2 Mouse | 1 Mouse | 1 Mouse | 1 Mouse | 9.1** Days | 0 Mouse | 2 Mouse | 1 Mouse | 0 Mouse | 0 Mouse | 11.4**** Days | 0 Mouse | 3 Mouse | Number of mice that died on each day after infection: day 6 ([6]; 5 mg/kg gavage): 1 Mouse; Number of mice that died on each day after infection: day 7 ([6]; 5 mg/kg gavage): 0 Mouse; Number of mice that died on each day after infection: day 8 ([6]; 5 mg/kg gavage): 0 Mouse; Average survival times (Days) ([6]; 5 mg/kg gavage): 10.5*** Days; survival time of mice infected with Escherichia coli [6]: superior to those of the Levofloxacin group |
| CC(=O)N[C@H](CCCNC(=N)N)C(=O)N[C@H](CCCCN)C(=O)N[C@H](CC(C)C)C(=O)N[C@H](CC(C)C)C(=O)N[C@H](Cc1ccccc1)C(=O)N[C@H](CCCNC(=N)N)C(=O)N[C@H](CC(C)C)C(=O)N[C@H](CCCCN)C(=O)N[C@H](Cc1ccc2ccccc2c1)C(=O)N[C@H](CCCNC(=N)N)C(=O)N[C@H](CCCCN)C(N)=O [LV-3] (Ac-[dR][dK][dL][dL][dF][dR][dL][dK][d2Nal][dR][dK]-NH2) | 1 µg/mL (≈ 0.627 µM) | 8 µg/mL (≈ 5.01 µM) | 4 µg/mL (≈ 2.51 µM) | 1 µg/mL (≈ 0.627 µM) | 16 µg/mL (≈ 10 µM) | 1 µg/mL | – | – | – | – | – | – | 1 Mouse | 0 Mouse | 1 Mouse | 2 Mouse | 1 Mouse | 10.2*** Days | – | – | – |
| CC(=O)N[C@H](CCCNC(=N)N)C(=O)N[C@H](CCCCN)C(=O)N[C@H](CC(C)C)C(=O)N[C@H](CC(C)C)C(=O)N[C@H](Cc1ccc2ccccc2c1)C(=O)N[C@H](CCCNC(=N)N)C(=O)N[C@H](CC(C)C)C(=O)N[C@H](CCCCN)C(=O)N[C@H](Cc1ccccc1)C(=O)N[C@H](CCCNC(=N)N)C(=O)N[C@H](CCCCN)C(N)=O [LV-4] (Ac-[dR][dK][dL][dL][d2Nal][dR][dL][dK][dF][dR][dK]-NH2) | 1 µg/mL (≈ 0.627 µM) | 16 µg/mL (≈ 10 µM) | 2 µg/mL (≈ 1.25 µM) | 2 µg/mL (≈ 1.25 µM) | 8 µg/mL (≈ 5.01 µM) | 1 µg/mL | – | – | – | – | – | – | 0 Mouse | 1 Mouse | 2 Mouse | 2 Mouse | 1 Mouse | 9.5** Days | – | – | – |
| CC(=O)N[C@H](CCCNC(=N)N)C(=O)N[C@H](CCCCN)C(=O)N[C@H](CC(C)C)C(=O)N[C@H](CC(C)C)C(=O)N[C@H](Cc1ccc(F)cc1)C(=O)N[C@H](CCCCN)C(=O)N[C@H](CC(C)C)C(=O)N[C@H](CCCCN)C(=O)N[C@H](Cc1ccc(F)cc1)C(=O)N[C@H](CCCCN)C(=O)N[C@H](CCCNC(=N)N)C(N)=O [LV-5] (Ac-[dR][dK][dL][dL][dPhe(4-F)][dK][dL][dK][dPhe(4-F)][dK][dR]-NH2) | 1 µg/mL (≈ 0.644 µM) | 8 µg/mL (≈ 5.15 µM) | 2 µg/mL (≈ 1.29 µM) | 4 µg/mL (≈ 2.57 µM) | 4 µg/mL (≈ 2.57 µM) | 1 µg/mL | – | – | – | – | – | – | 1 Mouse | 2 Mouse | 2 Mouse | 1 Mouse | 0 Mouse | 8.9** Days | – | – | – |
